{"source": "paper PMC8653662", "about": "“Cytotoxicity and Immunogenicity Evaluation of Synthetic Cell-penetrating Peptides for Methotrexate Delivery” (Iranian Journal of Pharmaceutical Research : IJPR, 2021)", "key": {"TNF-α": {"tested_on": "TNF-α", "type": "cell-based, Human", "conditions": "Raji cells; LPS 10 μg/mL; 48 h; positive control", "method": "(§1) As a positive control, cells were incubated with 10 μg/mL of lipopolysaccharide (LPS) to induce IL-6 and TNF-α release. Then, the supernatant was collected and IL-6 and TNF-α secretion was evaluated using standard ELISA kits."}, "IL-6": {"tested_on": "IL-6", "type": "cell-based, Human", "conditions": "Raji cells; LPS 10 μg/mL; 48 h; positive control", "method": "as §1"}, "Raji cells": {"tested_on": "Raji cells", "experiment": "MTT cell viability assay", "type": "cell-based, Human", "conditions": "for cytotoxicity of CPPs: 5, 10, 25 and 50 μM, 24, 48 and 72 h, 570 nm, mean of three independent experiments in duplicate", "method": "Human lymphoma cell line (Raji) was cultured in 75 cm^2 cell culture flasks containing RPMI 1640 medium (Gibco), which was supplemented with 10% FBS, 2 mM L-glutamine, 100 units/mL penicillin, and 100 µg/mL streptomycin ([29]). The cell culture was carried out in a humidified atmosphere of 5% CO2, 95% air, and 37 °C. The cell viability of CPPs and peptide-MTX conjugates was determined by MTT assay in Raji cells. […] […] The cell viability was determined by measuring the amount of MTT transformed to formazan salt using an ELISA reader at 570 nm (Bioteck Instruments, Winooski, VT, USA). The results were the means of three independent experiments performed in duplicate."}, "[1]": {"experiment": "Zetasizer hydrodynamic size distribution and zeta potential", "type": "physicochemical", "conditions": "Zetasizer Nano ZS, distilled water pH 7.4, 25 °C, repeated three times", "method": "The size and morphology of NGRWR peptide and NGRWR-E8 nanoparticles (as representatives) were examined by scanning electron microscopy (SEM, Mira3 FEG-SEM Tescan 5.0 kV). Samples were prepared by drop-casting of a 5 mM aqueous solution (20 µL) onto the mica surface. Then, they were lyophilized, coated with gold, and analyzed with a […] of SEM. Zetasizer Nano ZS (Malvern Instruments, Worcestershire, UK) was employed to examine the mean hydrodynamic diameter, size distribution, and zeta potential of NGRWR peptide and NGRWR-E8 nanoparticles. To this end, the samples were diluted in distilled water (pH 7.4), and the experiment was repeated three times per sample at 25 °C."}}, "note": "Ends that are not written are not given here. MTX = methotrexate", "data": [{"substance": "lipopolysaccharide [LPS]", "values": [{"measurement": "TNF-α level enhancement over the control group", "setting": "TNF-α", "value": 100, "unit": "times"}, {"measurement": "IL-6 level enhancement over the control group", "setting": "IL-6", "value": 100, "unit": "times"}]}, {"substance": "WRWRWRNGR [linear cell-penetrating peptide …]", "values": [{"measurement": "cytotoxicity of CPPs", "setting": "Raji cells", "value": "no significant cytotoxicity"}]}, {"substance": "WWWWRRRR [W4R4, linear cell-penetrating peptide WWWWRRRR]", "values": [{"measurement": "cytotoxicity of CPPs", "setting": "Raji cells", "value": "no significant cytotoxicity"}]}, {"substance": "WRWRWRWR [[WR]4, linear cell-penetrating peptide WRWRWRWR]", "values": [{"measurement": "cell viability", "setting": "Raji cells; 5 μM peptide, 24 h", "value": 40, "unit": "%"}]}, {"substance": "WWWWKKKK [W4K4, linear cell-penetrating peptide WWWWKKKK]", "values": [{"measurement": "cytotoxicity of CPPs", "setting": "Raji cells", "value": "no significant cytotoxicity"}]}, {"substance": "WRNGRWR-MTX (WRNGRWR-{MTX})", "values": [{"measurement": "cytotoxic effect of peptide-MTX conjugates", "setting": "Raji cells; 25 nM MTX, 48 h after treatment", "value": "no significant cytotoxic effect"}]}, {"substance": "WKWKWKWK [[WK]4, linear cell-penetrating peptide WKWKWKWK]", "values": [{"measurement": "cytotoxicity of CPPs", "setting": "Raji cells", "value": "no significant cytotoxicity"}]}, {"substance": "NGRWRWRWR [linear cell-penetrating peptide …]", "values": [{"measurement": "cytotoxicity of CPPs", "setting": "Raji cells", "value": "no significant cytotoxicity"}, {"measurement": "size distribution, population of 16% of particles", "setting": "[1]", "value": 50, "unit": "nm"}, {"measurement": "size distribution, population of 20% of particles", "setting": "[1]", "value": 37, "unit": "nm"}, {"measurement": "size distribution, population of 21% of particles", "setting": "[1]", "value": "50-250 nm"}, {"measurement": "size distribution, population of 43% of particles", "setting": "[1]", "value": 26, "unit": "nm"}, {"measurement": "zeta potential", "setting": "[1]", "value": "+11 mV"}]}, {"substance": "RRRRRR [R6, linear polyarginine peptide RRRRRR]", "values": [{"measurement": "cytotoxicity of CPPs", "setting": "Raji cells", "value": "no significant cytotoxicity"}]}, {"substance": "WRWNGRWRW [WRNGRWR, linear cell-penetrating peptide …]", "values": [{"measurement": "cytotoxicity of CPPs", "setting": "Raji cells", "value": "no significant cytotoxicity"}]}]}
